For one series, the target named is RIP2 kinase (Homo sapiens (Human), UniProt O43353). Description: Binding affinity assay (Kd). As to the method:
For most assays, kinase-tagged T7 phage strains were prepared in an E. coli host derived from the BL21 strain. E. coli were grown to log-phase and infected with T7 phage and incubated with shaking at 32° C. until lysis. The lysates were centrifuged and filtered to remove cell debris. The remaining kinases were produced in HEK-293 cells and subsequently tagged with DNA for qPCR detection. Streptavidin coated magnetic beads were treated with biotinylated small molecule ligands for 30 minutes at room temperature to generate affinity resins for kinase assays. The liganded beads were blocked with excess biotin and washed with blocking buffer (SeaBlock (Pierce), 1% BSA, 0.05% Tween 20, 1 mM DTT) to remove unbound ligand and to reduce non-specific binding. Binding reactions were assembled by combining kinases, liganded affinity beads, and test compounds in 1× binding buffer (20% SeaBlock, 0.17×PBS, 0.05% Tween 20, 6 mM DTT). Test compounds were prepared as 111× stocks in 100% DMSO. Kds were determined using an 11-point 3-fold compound dilution series with three DMSO control points. All compounds for Kd measurements are distributed by acoustic transfer (non-contact dispensing) in 100% DMSO. The compounds were then diluted directly into the assays such that the final concentration of DMSO was 0.9%. All reactions performed in polypropylene 384-well plate. Each was a final volume of 0.02 ml. The assay plates were incubated at room temperature with shaking for 1 hour and the affinity beads were washed with wash buffer (1×PBS, 0.05% Tween 20). The beads were then re-suspended in elution buffer (1×PBS, 0.05% Tween 20, 0.5 μM nonbiotinylated affinity ligand) and incubated at room temperature with shaking for 30 minutes. The kinase concentration in the eluates was measured by qPCR.
An 11-point 3-fold serial dilution of each test compound was prepared in 100% DMSO at 100× final test concentration and subsequently diluted to 1× in the assay (final DMSO concentration=1%). Most Kds were determined using a compound top concentration=30,000 nM. If the initial Kd determined was <0.5 nM (the lowest concentration tested), the measurement was repeated with a serial dilution starting at a lower top concentration.
Binding constants (Kds) were calculated with a standard dose-response curve using the Hill equation: […]
The Hill Slope was set to −1.
Curves were fitted using a non-linear least square fit with the Levenberg-Marquardt algorithm.

Series [1] relates to IL-8 in THP-1 induced by MDP. The series is described as follows: THP-1 cell assay, IL-8 ELISA after MDP. The following applies: for inhibition at 0.01 µM: Homo sapiens, test compounds 10 nM, THP-1, MDP induced. The format is cell-based. As to the method: Acute monoblastic and monocytic leukemia (THP-1) was obtained from ATCC (item NO. TIB-202™). The temperature of the sterile incubator is 37˜38° C., the osmotic pressure is 260˜320 mmol/L, the pH range is 7.2˜7.4, and the ratio of carbon dioxide gas is 5%.
Cells were seeded in 96-well plates. After an hour, cells were incubated with test compounds for 2 hours. MDP (10 μL) was added and incubated for 6 hours. The samples were centrifuged (3000 rmp/min) for 5 minutes. The concentration of IL-8 in the supernatants was detected by IL-8 ELISA.

A short description of series [2]: Protein binding test (dialysis), dog. The format is in vitro ADME. On the procedure: (§1) • 1. Spiking Solutions of Test and Reference Compounds • 1.1 Solution A (0.5 mM): Add 10 μL of 10 mM stock solution into 190 μL of DMSO. • 1.2 Solution B (0.02 mM): Add 8 μL of Solution A into 192 μL of 0.05 M sodium phosphate buffer. The final DMSO concentration in Solution B is 4%. • 2. Preparation of Test and Reference Compounds • 2.1 Preload a 96-well plate with 380 μL aliquots of plasma in the wells designated for plasma and buffer, respectively. • 2.2 Spike 20 μL of Solution B (0.02 mM of test and reference compounds) into the pre-loaded plasma in the 96-well plate. The final test concentration is 1 μM containing 0.2% DMSO. • 3. Dialysis Sample Loading • 3.1 Preparing plasma against buffer system (duplicate): Apply aliquots of 100 μL of blank dialysis buffer to the receiver side of dialysis chambers. Then apply aliquots of 100 μL of the plasma spiked with test and reference compounds to the donor side of the dialysis chambers. • 3.2 Preparing T0 plasma samples for initial concentrations (duplicate): • 3.2.1 Aliquot 25 μL of the plasma spiked with test and reference compounds into a 96-well sample preparation plate as T0 plasma samples • 3.2.2 Mix the aliquots with same volume of blank buffer (50:50, v/v). • 3.2.3 Quench the samples with 200 μL of acetonitrile containing internal standard (IS). • 3.3 Cover the dialysis block with a plastic lid and place the entire apparatus in a shaker (60 rpm) for 5 hours at 37° C. • 3.4 Preparing dialyzed samples after 5-hour incubation: • 3.4.1 Aliquot 25 μL from both the donor sides and receiver sides of the dialysis apparatus into new sample preparation plates and mix the aliquots with same volume of opposite matrixes (blank buffer to plasma and vice versa). • 3.4.2 Quench the samples with 200 μL acetonitrile containing internal standard (IS). Vortex all the samples (from 0 h and 5 h) at 600 rpm for 10 min followed by centrifugation at 5594 g for 15 minutes (ThermoMultifuge×3R). • 3.4.3 Transfer 50 μL of the supernatants to a new 96-well plate and mix the samples with 50 μL of Milli-Q water. Cover the sample plate and store it in a freezer (−20° C.) until LC/MS/MS analysis.

The nature of series [3]: Pharmacokinetic evaluation in mice. The format is in vivo. As to the method:
The mice pharmacokinetic characteristics of compounds were tested by standard protocols. The candidate compounds were made into clear solution for single intravenous injection (i.v.) and suspension for oral administration (p.o.). Intravenous vehicle is 5% DMSO+95% Saline while oral vehicle is 0.5% CMCNa. The experiment used 48 male mice and 24 mice for intravenous at a dose of 2 mg/kg. Plasma samples were collected at 0 h (before dosing) and 0.083 h, 0.25 h, 0.5 h, 1 h, 2 h, 4 h, 8 h, 24 h after dosing. Another 24 mice were orally administrated with a dose of 10 mg/kg. Plasma samples were collected at 0 h (before dosing) and 0.25 h, 0.5 h, 1 h, 2 h, 4 h, 6 h, 8 h, 24 h after dosing.
Blood samples were placed in tubes containing K2-EDTA and stored on ice until centrifuged. The blood samples were centrifuged at 6800 g for 6 minutes at 2-8° C. within 1 h after collected and stored frozen at approximately −80° C.
The analytical results were confirmed using quality control samples for intra-assay variation. The accuracy of >66.7% of the quality control samples and 50% of all QC samples at each concentration level were between 80-120% of the known value(s).
Standard set of parameters including Area Under the Curve (AUC(0-t) and AUC(0-∞)), elimination half-live (T1/2), maximum plasma concentration (Cmax), time to reach maximum plasma concentration (Tmax) were calculated using noncompartmental analysis modules in FDA certified pharmacokinetic program Phoenix WinNonlin 7.0 (Pharsight, USA) by the Study Director.

Series [4] in a line: Protein binding test (dialysis), human. The format is in vitro ADME. On the procedure:
as §1

A short description of series [5]: Protein binding test (dialysis), rat. The format is in vitro ADME. As to the method:
as §1

The mark [6] stands for this setting: male, mouse, plasma, iv, i.v. 2 mg/kg.
[7] abbreviates: male, mouse, plasma, po, p.o. 10 mg/kg.

Where a name gives a salt, the structure may show the parent alone.

RIP2 kinase, sequence (O43353 whole entry): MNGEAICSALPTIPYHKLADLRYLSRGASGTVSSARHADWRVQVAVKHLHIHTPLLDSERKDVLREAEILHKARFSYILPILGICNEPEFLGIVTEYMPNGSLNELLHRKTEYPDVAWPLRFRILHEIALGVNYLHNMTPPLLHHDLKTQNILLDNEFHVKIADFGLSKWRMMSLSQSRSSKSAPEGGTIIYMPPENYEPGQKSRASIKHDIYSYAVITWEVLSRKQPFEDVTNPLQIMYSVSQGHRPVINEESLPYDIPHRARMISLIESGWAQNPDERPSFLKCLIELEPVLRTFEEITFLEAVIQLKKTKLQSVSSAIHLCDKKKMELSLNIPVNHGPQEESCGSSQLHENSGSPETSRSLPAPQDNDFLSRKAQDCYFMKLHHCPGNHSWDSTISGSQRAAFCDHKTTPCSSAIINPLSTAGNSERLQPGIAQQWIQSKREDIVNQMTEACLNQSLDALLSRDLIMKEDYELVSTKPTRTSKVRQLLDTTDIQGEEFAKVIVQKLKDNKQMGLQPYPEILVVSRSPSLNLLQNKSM

For orientation: Kd means a measure of binding affinity in units of concentration. A high value points to lower affinity. In the case of `CP(C)(=O)c1cc2c(Nc3ccc4scnc4c3)ccnc2cc1OC1CCC1` [A21], the Kd on RIP2 kinase came to 1.5 nM. This lies in the single-digit nanomolar range.

Consider `CP(C)(=O)c1cnc2nccc(Nc3ccc4scnc4c3)c2c1` [B1, (5-(benzo[d]thiazol-5-ylamino)-1,8-naphthyridin-3-yl)dimethylphosphine oxide], for which, at RIP2 kinase, the Kd amounted to 3200 nM and the “affinity with RIP2 kinase (in words)” value is “low affinity”.

As a reminder, the inhibition is how much of the control response was suppressed. Low readings indicate a weak effect, high ones a strong effect. Consider `[2H]C([2H])([2H])Oc1cc2nccc(Nc3ccc4scnc4c3)c2cc1P(C)(C)=O` [A22], for which, in series [1], the inhibition at 0.01 µM stood at 60%. Regarding `Cc1noc(C)c1-c1cc2nccc(Nc3ccc4scnc4c3)c2cc1P(C)(C)=O` [A27], in series [1], the inhibition at 0.01 µM came out at 37%. For orientation: fraction unbound means the share of the substance not bound to proteins or other matrix. The term AUC denotes concentration integrated over time. Low values mean less exposure, high ones more exposure. Broadly, the Vd is the apparent volume that relates the amount in the body to the concentration in plasma or blood. Low readings indicate little distribution into tissue, high ones wide distribution into tissue. What is called clearance is the rate of elimination divided by the concentration. The low end stands for a low capacity for elimination, the high end for a high capacity for elimination. As usually defined, the half-life is the time in which the quantity being followed falls by half. Usually Cmax stands for the highest concentration seen after dosing. What is called Tmax is the time at which the peak concentration occurs. In the case of `CP(C)(=O)c1cc2c(Nc3ccc4scnc4c3)ccnc2cc1OC(F)F` [A25], the “protein binding in dog (in words)” value in series [2] (dog) is listed as “moderate”. This compound showed a free fraction (fraction unbound) at 5 h, 1 μM in series [2] (dog plasma, 1 μM) of 0.05. Also, the “plasma exposure and bioavailability in mice (in words)” value in series [3] is “excellent plasma exposure and bioavailability”. In series [3] (setting [6]), this compound gave an area under the curve (AUC) of 6510 ng·h/mL, a Vd of 0.59 L/kg, a clearance of 4.3 mL/min/kg and a half-life of 1.6 h. For the same compound, in series [3] (setting [7]), the AUC worked out at 68300 ng·h/mL, the Cmax came out at 19200 ng/mL and the Tmax stood at 0.7 h. Also, the F in series [3] (p.o. 10 mg/kg) was determined as 210%. In addition, the “protein binding in human (in words)” value in series [4] (human) is “moderate”. In addition, in series [4] (human plasma, 1 μM), the fraction unbound at 5 h, 1 μM is 0.032. Moreover, in series [5] (rat), the “protein binding in rat (in words)” value was “high protein binding”. The fraction unbound at 5 h, 1 μM in series [5] (rat plasma, 1 μM) was 0.006. At RIP2 kinase, the Kd came to 6.4 nM. As to `Cc1ccc(O)cc1Nc1ccnc2ccc(P(C)(C)=O)cc12` [A2], the dissociation constant Kd on RIP2 kinase amounted to 89 nM. The compound `CP(C)(=O)c1cc2c(Nc3ccc4scnc4c3)ccnc2cc1OC[C@@H](O)CO` [A18, (S)-(4-(benzo[d]thiazol-5-ylamino)-7-(2,3-dihydroxypropoxy)quinolin-6-yl)dimethylphosphine oxide] returned an inhibition at 0.01 µM in series [1] of 12%.

Take `Cc1[nH]nc(Nc2ccnc3ccc(P(C)(C)=O)cc23)c1C` [A4]: the dissociation constant (Kd) at RIP2 kinase was determined as 89 nM.

With `CP(C)(=O)c1ccc2nccc(Nc3cc(O)ccc3F)c2c1` [A5], the Kd on RIP2 kinase is 120 nM. Consider `CP(C)(=O)c1cc2c(Nc3ccc4scnc4c3)ccnc2cc1-c1cn[nH]c1` [A17], for which the inhibition at 0.01 µM in series [1] is 11%. In series [1], `CP(C)(=O)c1cc2c(Nc3ccc4scnc4c3)ccnc2cc1OC1CCOC1` (centres unmarked) [A10] showed an inhibition at 0.01 µM of 51%. In addition, at RIP2 kinase, binding was characterised by a dissociation constant (Kd) of 1.8 nM. `CP(C)(=O)c1cc2c(Nc3ccc4scnc4c3)ccnc2cc1-c1cc[nH]n1` [A12] yielded a Kd at RIP2 kinase of 2.3 nM. `Cn1cc(-c2cc3nccc(Nc4ccc5scnc5c4)c3cc2P(C)(C)=O)cn1` [A11, (4-(benzo[d]thiazol-5-ylamino)-7-(1-methyl-1H-pyrazol-4-yl)quinolin-6-yl)dimethylphosphine oxide] returned an inhibition at 0.01 µM in series [1] of 37%. This compound came in with a Kd on RIP2 kinase of 3 nM. `COc1cc2ncc(F)c(Nc3ccc4scnc4c3)c2cc1P(C)(C)=O` [A23, (4-(benzo[d]thiazol-5-ylamino)-3-fluoro-7-methoxyquinolin-6-yl)dimethylphosphine oxide] gave an inhibition at 0.01 µM in series [1] of 5%. `CP(C)(=O)c1cc2c(Nc3ccc4scnc4c3F)ccnc2cc1OC1COC1` [A29] yielded an inhibition at 0.01 µM in series [1] of 85%. In turn, `CP(C)(=O)c1cc2c(Nc3ccc4scnc4c3)ccnc2cc1OC[C@H](O)CO` [A19] had an inhibition at 0.01 µM in series [1] of 13%. For the compound `CP(C)(=O)c1cc2c(Nc3ccc4scnc4c3)ccnc2cc1C1COC1` [A26, (4-(benzo[d]thiazol-5-ylamino)-7-(oxetan-3-yl)quinolin-6-yl)dimethylphosphine oxide], the Kd at RIP2 kinase turned out to be 12 nM. For `CP(C)(=O)c1ccc2nccc(Nc3n[nH]c4ccc(F)cc34)c2c1` [A3], binding on RIP2 kinase was put at a Kd of 430 nM. In turn, `CP(C)(=O)c1ccc2nccc(Nc3ccc4scnc4c3)c2c1` [A1, (4-(benzo[d]thiazol-5-ylamino)quinolin-6-yl)dimethylphosphine oxide hydrochloride] gave a Kd at RIP2 kinase of 28 nM. `COc1cc2nncc(Nc3ccc4scnc4c3)c2cc1P(C)(C)=O` [B2, (4-(benzo[d]thiazol-5-ylamino)-7-methoxycinnolin-6-yl)dimethylphosphine oxide]: the “inhibition of IL-8 in THP-1 induced by MDP (in words)” value in series [1] (10 nM) was “no effect”. In series [1], this compound displayed an inhibition at 0.01 µM of 0%. As for `COc1cc2nccc(Nc3ccc4scnc4c3F)c2cc1P(C)(C)=O` [A28], in series [1], testing at 0.01 µM gave an inhibition of 63%. For the compound `CP(C)(=O)c1cc2c(Nc3ccc4scnc4c3)ccnc2cc1F` [A20], binding at RIP2 kinase was characterised by a dissociation constant (Kd) of 8.7 nM. This lies in the single-digit nanomolar range.

The values are drawn from patent US20240190904A1, “Heteroaryl compounds as inhibitors of RIP2 kinase, composition and application thereof” (Accro Bioscience (HK) Limited, priority 2021, published 2024).
